Measurements published in patent publication US4552865A, “Psychotropic drugs” (Shionogi & Co., Ltd., priority 1981, dated 1985).
Structures can show the parent of a compound that is named as a salt. Where two headings read alike, the source gives them in different places. Where a SMILES comes first, the peptide text is derived from it. [ ]: non-standard residue; d: D form. sY = N[C@@H](Cc1ccc(OS(=O)(=O)O)cc1)C(=O)O; pGlu = O=C1CC[C@@H](C(=O)O)N1

Tests used:
[1] = system: patients of schizophrenia
Method: (1) Method of application: Caerulein tris-diethylamine salt is dissolved in sterilized physiological saline at a rate of 20 μg/ml (W/V), and intramuscularly injected to each patient once at a dose of 0.3 μg/kg (body weight) or 0.6 μg/kg (body weight).

mice = conditions: intravenous, cited from earlier work
rats = conditions: intravenous, cited from earlier work

Which Side effect ([1]; individual schizophrenia patient, after i.m. injection) does the source give for `CSCC[C@H](NC(=O)[C@H](Cc1c[nH]c2ccccc12)NC(=O)CNC(=O)[C@@H](NC(=O)[C@H](Cc1ccc(OS(=O)(=O)O)cc1)NC(=O)[C@H](CC(=O)O)NC(=O)[C@H](CCC(N)=O)NC(=O)[C@@H]1CCC(=O)N1)[C@@H](C)O)C(=O)N[C@@H](CC(=O)O)C(=O)N[C@@H](Cc1ccccc1)C(N)=O` [Caerulein tris-diethylamine salt] ([pGlu]QD[sY]TGWMDF-NH2) here?
The Side effect was “No”.

With `CSCC[C@H](NC(=O)[C@H](Cc1c[nH]c2ccccc12)NC(=O)CNC(=O)[C@@H](NC(=O)[C@H](Cc1ccc(OS(=O)(=O)O)cc1)NC(=O)[C@H](CC(=O)O)NC(=O)[C@H](CCC(N)=O)NC(=O)[C@@H]1CCC(=O)N1)[C@@H](C)O)C(=O)N[C@@H](CC(=O)O)C(=O)N[C@@H](Cc1ccccc1)C(N)=O` [caerulein, 5-oxo-L-prolyl-L-glutaminyl-L-aspartyl-O-sulfo-L-tryosyl-L-threonylglycyl-L-tryptophyl-L-methionyl-L-aspartyl-L-phenylalaninamide] ([pGlu]QD[sY]TGWMDF-NH2) as the molecule, how does the mental conditions ([1]; administered to humans) read?
The mental conditions was “improves rapidly and markedly the mental conditions”.

What about the LD50 (mice; female) of the same molecule?
Its LD50 is 702 mg/kg.

And the LD50 (mice; male)?
Its LD50 is 647 mg/kg.

And the LD50 (rats; female)?
The LD50 was 571 mg/kg.

What about the LD50 (rats; male) of the same molecule?
The LD50 was 714 mg/kg.
